Assay results: patent US20070043049A1, “Substituted heterocyclic diarylamine analogues” (Neurogen Corporation, priority 2003, published 2007)

molecular target: T1, human capsaicin receptor (Homo sapiens, UniProt Q8NER1); assay: Calcium mobilization assay, determination of antagonist activity (Example 6); type: cell-based; settings: 50% decrease in fluorescence response of cells expressing human capsaicin receptor exposed to capsaicin
T1 construct: pBK-CMV expression construct encoding the full length human capsaicin receptor; expressed in transfected cells
T1 sequence (Q8NER1 whole entry): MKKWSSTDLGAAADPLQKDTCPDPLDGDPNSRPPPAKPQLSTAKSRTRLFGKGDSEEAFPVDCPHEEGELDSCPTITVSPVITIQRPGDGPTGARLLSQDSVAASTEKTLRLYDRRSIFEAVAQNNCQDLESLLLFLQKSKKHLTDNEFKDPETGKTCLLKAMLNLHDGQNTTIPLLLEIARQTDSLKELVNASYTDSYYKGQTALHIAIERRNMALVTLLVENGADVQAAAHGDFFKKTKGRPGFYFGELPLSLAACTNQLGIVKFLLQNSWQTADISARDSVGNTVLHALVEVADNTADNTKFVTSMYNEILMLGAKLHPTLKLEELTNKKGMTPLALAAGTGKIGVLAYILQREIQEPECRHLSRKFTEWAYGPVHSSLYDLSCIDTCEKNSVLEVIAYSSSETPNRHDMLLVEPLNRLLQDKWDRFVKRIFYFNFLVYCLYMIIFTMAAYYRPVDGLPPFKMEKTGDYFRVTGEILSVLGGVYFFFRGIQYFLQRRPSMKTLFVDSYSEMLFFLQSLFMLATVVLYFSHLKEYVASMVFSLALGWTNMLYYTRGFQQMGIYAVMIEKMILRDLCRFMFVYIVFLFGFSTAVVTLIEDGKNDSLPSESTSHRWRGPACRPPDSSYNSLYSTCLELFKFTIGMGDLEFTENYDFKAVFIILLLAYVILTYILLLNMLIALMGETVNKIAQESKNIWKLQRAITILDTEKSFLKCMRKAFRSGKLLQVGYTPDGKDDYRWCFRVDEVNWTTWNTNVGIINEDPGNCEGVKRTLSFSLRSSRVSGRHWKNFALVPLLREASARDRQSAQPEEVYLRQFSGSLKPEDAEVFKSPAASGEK
Experimental: A cDNA encoding full length human capsaicin receptor (SEQ ID NO:1, 2 or 3 of U.S. Pat. No. 6,482,611) was subcloned in the plasmid pBK-CMV (Stratagene, La Jolla, Calif.) for recombinant expression in mammalian cells.
Human embryonic kidney (HEK293) cells were transfected with the pBK-CMV expression construct encoding the full length human capsaicin receptor using standard methods. The transfected cells were selected for two weeks in media containing G418 (400 μg/ml) to obtain a pool of stably transfected cells. Independent clones were isolated from this pool by limiting dilution to obtain clonal stable cell lines for use in subsequent experiments.
Cells transfected with expression plasmids (as described in Example 4) and thereby expressing human capsaicin receptor are seeded and grown to 70-90% confluency in FALCON black-walled, clear-bottomed 96-well plates (#3904, BECTON-DICKINSON, Franklin Lakes, N.J.). The culture medium is emptied from the 96 well plates and FLUO-3 AM calcium sensitive dye (Molecular Probes, Eugene, Oreg.) is added to each well (dye solution: 1 mg FLUO-3 AM, 440 μL DMSO and 440 μl 20% pluronic acid in DMSO, diluted 1:250 in Krebs-Ringer HEPES (KRH) buffer (25 mM HEPES, 5 mM KCl, 0.96 mM NaH2PO4, 1 mM MgSO4, 2 mM CaCl2, 5 mM glucose, 1 mM probenecid, pH 7.4), 50 μl diluted solution per well). Plates are covered with aluminum foil and incubated at 37° C. for 1-2 hours in an environment containing 5% CO2. After the incubation, the dye is emptied from the plates, and the cells are washed once with KRH buffer, and resuspended in KRH buffer.
To measure the ability of a test compound to agonize or antagonize a calcium mobilization response in cells expressing capsaicin receptors to capsaicin or other vanilloid agonist, the EC50 of the agonist capsaicin is first determined. An additional 20 μl of KRH buffer and 1 μl DMSO is added to each well of cells, prepared as described above. 100 μl capsaicin in KRH buffer is automatically transferred by the FLIPR instrument to each well. Capsaicin-induced calcium mobilization is monitored using either FLUOROSKAN ASCENT (Labsystems; Franklin, Mass.) or FLIPR (fluorometric imaging plate reader system; Molecular Devices, Sunnyvale, Calif.) instruments. Data obtained between 30 and 60 seconds after agonist application are used to generate an 8-point concentration response curve, with final capsaicin concentrations of 1 nM to 3 μM. KALEIDAGRAPH software (Synergy Software, Reading, Pa.) is used to fit the data to the equation: y=a*(1/(1+(b/x)^c)) to determine the 50% excitatory concentration (EC50) for the response. In this equation, y is the maximum fluorescence signal, x is the concentration of the agonist or antagonist (in this case, capsaicin), a is the Emax, b corresponds to the EC50 value and c is the Hill coefficient. Determination of Agonist Activity
Test compounds are dissolved in DMSO, diluted in 20 μl KRH buffer so that the final concentration of test compounds in the assay well is between 1 μM and 5 μM, and added to cells prepared as described above. The 96 well plates containing prepared cells and test compounds are incubated in the dark, at room temperature for 0.5 to 6 hours. It is important that the incubation not continue beyond 6 hours. Just prior to determining the fluorescence response, 100 μl capsaicin in KRH buffer at twice the EC50 concentration determined as described above is automatically added by the FLIPR instrument to each well of the 96 well plate for a final sample volume of 200 μl and a final capsaicin concentration equal to the EC50. The final concentration of test compounds in the assay wells is between 1 μM and […]. […] The concentration of antagonist required to provide a 50% decrease, relative to the response observed in the presence of capsaicin and without antagonist, is the IC50 for the antagonist, and is preferably below 1 micromolar, 100 nanomolar, 10 nanomolar or 1 nanomolar.

| SMILES | IC50 [nM] |
| --- | --- |
| C[C@@H]1CN(c2ncccc2Cl)CCN1c1nc(Nc2cccc(F)c2)nc(N2CCOCC2)n1 (stereo in doubt) [Compound 104, {4-[4-(3-Chloro-pyridin-2-yl)-2-methyl-piperazin-1-yl]-6-morpholin-4-yl-[1,3,5]triazin-2-yl}-(3-fluoro-phenyl)-amine] | ≤ 1000 |
| CC(C)c1ccc(-c2nc(Nc3ccc(C(F)(F)F)cc3)nc(N3CCN(c4ncccc4Cl)C[C@H]3C)n2)cc1 (stereo in doubt) [Compound 114, [4-[4-(3-Chloro-pyridin-2-yl)-2-methyl-piperazin-1-yl]-6-(4-isopropyl-phenyl)-[1,3,5]triazin-2-yl]-(4-trifluoromethyl-phenyl)-amine] | ≤ 1000 |
| C[C@@H]1CN(c2ncccc2Cl)CCN1c1cc(Nc2ccc(C(C)(C)C)cc2)ncn1 [Compound 1, (4-tert-Butyl-phenyl)-{6-[4-(3-chloro-pyridin-2-yl)-2-methyl-piperazin-1-yl]-pyrimidin-4-yl}-amine (R)] | ≤ 1000 |
| C[C@@H]1CN(c2ncccc2Cl)CCN1c1nc(Cl)nc(Nc2ccc(C(C)(C)C)cc2)n1 [Compound 2, (4-tert-Butyl-phenyl)-{4-chloro-6-[4-(3-chloro-pyridin-2-yl)-2-methyl-piperazin-1-yl]-[1,3,5]triazin-2-yl}-amine (R)] | ≤ 1000 |
| C[C@@H]1CN(c2ncccc2C(F)(F)F)CCN1c1nc(Cl)nc(Nc2ccc(C(C)(C)C)cc2)n1 [Compound 3, (4-tert-Butyl-phenyl)-{4-chloro-6-[2-methyl-4-(3-trifluoromethyl-pyridin-2-yl)-piperazin-1-yl]-[1,3,5]triazin-2-yl}-amine (R)] | ≤ 1000 |
| C[C@@H]1CN(c2ncccc2Cl)CCN1c1nc(Nc2ccc(C(C)(C)C)cc2)nc(OCc2ccccc2C(F)(F)F)n1 [Compound 5, (4-tert-Butyl-phenyl)-[4-[4-(3-chloro-pyridin-2-yl)-2-methyl-piperazin-1-yl]-6-(2-trifluoromethyl-benzyloxy)-[1,3,5]triazin-2-yl]-amine (R)] | ≤ 1000 |
| C[C@@H]1CN(c2ncccc2C(F)(F)F)CCN1c1nc(Nc2ccc(C(C)(C)C)cc2)nc(OCc2ccccc2C(F)(F)F)n1 [Compound 6, (4-tert-Butyl-phenyl)-[4-[2-methyl-4-(3-trifluoromethyl-pyridin-2-yl)-piperazin-1-yl]-6-(2-trifluoromethyl-benzyloxy)-[1,3,5]triazin-2-yl]-amine (R)] | ≤ 1000 |
| C[C@@H]1CN(c2ncccc2F)CCN1c1nc(Nc2ccc(C(C)(C)C)cc2)nc(OCc2ccccc2C(F)(F)F)n1 [Compound 7, (4-tert-Butyl-phenyl)-[4-[4-(3-fluoro-pyridin-2-yl)-2-methyl-piperazin-1-yl]-6-(2-trifluoromethyl-benzyloxy)-[1,3,5]triazin-2-yl]-amine (R)] | ≤ 1000 |
| C[C@@H]1CN(c2ncccc2Cl)CCN1c1nc(Nc2ccc(C(F)(F)F)cc2)nc(OCc2ccccc2C(F)(F)F)n1 [Compound 8, [4-[4-(3-Chloro-pyridin-2-yl)-2-methyl-piperazin-1-yl]-6-(2-trifluoromethyl-benzyloxy)-[1,3,5]triazin-2-yl]-(4-trifluoromethyl-phenyl)-amine (R)] | ≤ 1000 |
| C[C@@H]1CN(c2ncccc2C(F)(F)F)CCN1c1nc(Nc2ccc(C(F)(F)F)cc2)nc(OCc2ccccc2C(F)(F)F)n1 [Compound 9] | ≤ 1000 |
| C[C@@H]1CN(c2ncccc2F)CCN1c1nc(Nc2ccc(C(F)(F)F)cc2)nc(OCc2ccccc2C(F)(F)F)n1 [Compound 10, [4-[4-(3-Fluoro-pyridin-2-yl)-2-methyl-piperazin-1-yl]-6-(2-trifluoromethyl-benzyloxy)-[1,3,5]triazin-2-yl]-(4-trifluoromethyl-phenyl)-amine (R)] | ≤ 1000 |
| CC(C)(C)c1ccc(Nc2nc(OCc3ccccc3C(F)(F)F)nc(N3CCN(c4ccccn4)CC3)n2)cc1 [Compound 11, (4-tert-Butyl-phenyl)-[4-(4-pyridin-2-yl-piperazin-1-yl)-6-(2-trifluoromethyl-benzyloxy)-[1,3,5]triazin-2-yl]-amine] | ≤ 1000 |
| COc1ccccc1N1CCN(c2nc(Nc3ccc(C(C)(C)C)cc3)nc(OCc3ccccc3C(F)(F)F)n2)CC1 [Compound 12, (4-tert-Butyl-phenyl)-[4-[4-(2-methoxy-phenyl)-piperazin-1-yl]-6-(2-trifluoromethyl-benzyloxy)-[1,3,5]triazin-2-yl]-amine] | ≤ 1000 |
| C[C@H]1CN(c2ncccc2C(F)(F)F)CCN1c1nc(Cl)nc(Nc2ccc(C(F)(F)F)cc2)n1 [Compound 13, {4-Chloro-6-[2-methyl-4-(3-trifluoromethyl-pyridin-2-yl)-piperazin-1-yl]-[1,3,5]triazin-2-yl}-(4-trifluoromethyl-phenyl)-amine (S)] | ≤ 1000 |
| C[C@H]1CN(c2ncccc2C(F)(F)F)CCN1c1nc(Nc2ccc(C(F)(F)F)cc2)nc(-c2ccc(C(F)(F)F)cc2)n1 [Compound 14, [4-[2-Methyl-4-(3-trifluoromethyl-pyridin-2-yl)-piperazin-1-yl]-6-(4-trifluoromethyl-phenyl)-[1,3,5]triazin-2-yl]-(4-trifluoromethyl-phenyl)-amine (S)] | ≤ 1000 |
| CC(C)CCNc1nc(Nc2ccc(C(F)(F)F)cc2)nc(N2CCN(c3ncccc3C(F)(F)F)C[C@@H]2C)n1 [Compound 15, N-(3-Methyl-butyl)-6-[2-methyl-4-(3-trifluoromethyl-pyridin-2-yl)-piperazin-1-yl]-N′-(4-trifluoromethyl-phenyl)-[1,3,5]triazine-2,4-diamine (S)] | ≤ 1000 |
| C[C@H]1CN(c2ncccc2C(F)(F)F)CCN1c1nc(Nc2ccc(C(F)(F)F)cc2)nc(-c2ccccc2Cl)n1 [Compound 16, {4-(2-Chloro-phenyl)-6-[2-methyl-4-(3-trifluoromethyl-pyridin-2-yl)-piperazin-1-yl]-[1,3,5]triazin-2-yl}-(4-trifluoromethyl-phenyl)-amine (S)] | ≤ 1000 |
| C[C@@H]1CN(c2ncccc2Cl)CCN1c1nc(Cl)cc(Nc2ccc(C(F)(F)F)cc2)n1 [Compound 17, {6-Chloro-2-[4-(3-chloro-pyridin-2-yl)-2-methyl-piperazin-1-yl]-pyrimidin-4-yl}-(4-trifluoromethyl-phenyl)-amine (R)] | ≤ 1000 |
| C[C@@H]1CN(c2ncccc2Cl)CCN1c1nc(Nc2ccc(C(F)(F)F)cc2)nc(N(C)C)n1 [Compound 18, 6-[4-(3-Chloro-pyridin-2-yl)-2-methyl-piperazin-1-yl]-N,N-dimethyl-N′-(4-trifluoromethyl-phenyl)-[1,3,5]triazine-2,4-diamine (R)] | ≤ 1000 |
| CCCCNc1nc(Nc2ccc(C(F)(F)F)cc2)nc(N2CCN(c3ncccc3Cl)C[C@H]2C)n1 [Compound 19, N-Butyl-6-[4-(3-chloro-pyridin-2-yl)-2-methyl-piperazin-1-yl]-N′-(4-trifluoromethyl-phenyl)-[1,3,5]triazine-2,4-diamine (R)] | ≤ 1000 |
| CN(C)c1nc(Nc2ccc(C(F)(F)F)cc2)nc(N2CCN(c3ncccc3C(F)(F)F)CC2)n1 [Compound 20, N,N-Dimethyl-N′-(4-trifluoromethyl-phenyl)-6-[4-(3-trifluoromethyl-pyridin-2-yl)-piperazin-1-yl]-[1,3,5]triazine-2,4-diamine] | ≤ 1000 |
| CC(C)CCNc1nc(Nc2ccc(C(F)(F)F)cc2)nc(N2CCN(c3ncccc3C(F)(F)F)CC2)n1 [Compound 21, N-(3-Methyl-butyl)-N′-(4-trifluoromethyl-phenyl)-6-[4-(3-trifluoromethyl-pyridin-2-yl)-piperazin-1-yl]-[1,3,5]triazine-2,4-diamine] | ≤ 1000 |
